Test results published in US12624173B2, “Biodegradable polymeric compositions, methods of preparation and uses thereof” (B.G. NEGEV TECHNOLOGIES AND APPLICATIONS LTD., AT …, priority 2019, dated 2026).
Where two headings read alike, the source gives them in different places. Each block holds one compound with its values, some of them ahead of it.

Key:
[1] = Cannabidiol distribution in brain and plasma 1 h after IN and IV administration; assay type: in vivo; conditions: rat
Procedure: The administered intranasal dose used in each animal was 220 μg CBD/kg body weight. The applied volume was approximately 15 μL/nostril. For the intravenous dose, a solution of CBD for injection was prepared by dissolving CBD in a small portion of ethanol, then mixed with a sterile saline solution (pH7.4) containing 1.5% Tween 80 and 0.1% ascorbic acid. The final concentration of ethanol was 5%. […] After 60 minutes from administration, the animals were euthanized by CO2 aspiration. […] The brain was then carefully excised, washed with saline, frozen at −80° C. and lyophilized.
The quantification of CBD was carried out at 220 nm.

[2] = CBD in oil, humans; cited from earlier work
[3] = rat, in vivo, iv
Procedure: (§1) For intravenous administration, aqueous solution of GR hydrochloride was prepared by dissolving the drug in a sterile saline solution. Approximately 0.3 ml of the solution were injected into the tail vein of a sedated animal (GR HCl dose=36 μg/kg body weight). The animals were sedated with isoflurane vapor just before administration. Sixty minutes after the administration, the animals were euthanized by CO2 aspiration. Then, blood sample was taken by cardiopuncture into heparinized tubes. Blood in heparinized tubes was centrifuged at 10,000-g for 10 min and the separated plasma was transferred into vials and kept at −20° C. until analyzed by HPLC. The brain was then carefully excised, washed with saline and frozen at −80° C.
(§2) Quantification of GR in plasma was performed by mixing 1 ml of plasma sample with 2 ml of methanol, followed by vortex stirring and centrifugation at 10,000-g for 10 min. The brain was homogenized with 2 ml of methanol/0.5 N HCl solution (1:1) followed by centrifugation at 10,000-g for 10 min. The supernatant solutions of both plasma and brain extracts were analyzed immediately by HPLC. Aliquots of 20 μl from each sample were injected into a HPLC system, equipped with a prepacked CN column. The quantification of GR was carried out at 301 nm. The samples were chromatographed using an isocratic mobile phase consisting of acetonitrile-acetate buffer solution pH5 (45:55) at a flow rate of 1 ml/min.

[4] = after IV curcumin in rats; cited from earlier work
[5] = cited from earlier work
[6] = Granisetron distribution in brain and plasma 1 h after IN and IV administration; conditions: rat
Procedure: as §1, §2

SMILES: C=C(C)[C@@H]1CCC(C)=C[C@H]1c1c(O)cc(CCCCC)cc1O [CBD, Cannabidiol]
concentration at 1 h ([1]; plasma, IV injection of CBD solution, dose 220 μg/Kg, 1 hour after administration, read-out: Plasma level (cannabidiol)): 71.2 ng/mL
CBD brain concentration ([1]; 1 h after iv administration of the same dose (220 μg/Kg)): no detectable concentration
Brain Level (cannabidiol) ([1]; IV injection of CBD solution, dose 220 μg/Kg, 1 hour after administration): Undetectable
oral bioavailability [2]: about 6%

portion of the dose that reached the brain [3]: ca. 0.64%
SMILES: CN1C2CCCC1CC(NC(=O)c1nn(C)c3ccccc13)C2.Cl (stereo not shown) [GR-HCl]

SMILES: COc1cc(/C=C/C(=O)CC(=O)/C=C/c2ccc(O)c(OC)c2)ccc1O [curcumin, diferuloyl methane]
t1/2 [4]: 0.47 h

Plasma level (granisetron) ([6]; IV injection of GR hydrochloride in saline (GR HCl 36 μg/kg), 1 hour after administration): Undetectable
concentration at 1 h ([6]; brain, iv, 36 μg/kg): 59.7 ng/g
SMILES: CN1C2CCCC1CC(NC(=O)c1nn(C)c3ccccc13)C2 (stereo not shown) [granisetron, Granisetron]
average Cmax ([5]; 1 mg oral dose): 3.63 ng/mL
Vd (volume of distribution) ([5]; in vivo): 3.94 L/kg
clearance (CL) ([5]; in vivo): 6.83 mL/min/kg
protein binding ([5]; in vivo): 65%
t1/2 ([5]; in vivo): 6.23 h
